# Data taken from patent US20210290648A1, “Potentiation of B-Lactam Antibiotics and B-Lactam/B-Lactamase Inhibitor Combinations Against Multidrug and Extensively Drug-Resistant Pseudomonas Aeruginosa Using Non-Ribosomal Tobramycin-Cyclam Conjugates” (University of Manitoba, priority 2018, published 2021).
# Where two headings read alike, the source gives them in different places.
# Legend:
# [1] = tested on: β-lactamase-harboring MDR P. aeruginosa clinical isolates; test: Triple combination susceptibility (β-lactam + avibactam + compound 2); format: cell-based, Pseudomonas aeruginosa
# Excerpt: The diazabicyclooctane β-lactamase inhibitor, avibactam, is able to inhibit a wide range of serine β-lactamases (class A, C, and D) but not metallo-β-lactamases (class B) (50, 51).^50,51 However, the high concentration of avibactam required to neutralize the effects of β-lactamase enzymes in these phenotypes is indicative of concomitant permeability barriers in the isolates, such as reduced porin uptake. […] The results of this study are shown in (FIG. 6). All isolates were resistant to all three β-lactam antibiotics used for the study. […] As expected, the study with meropenem was slightly different from others.
# Antimicrobial Susceptibility Assay. The in vitro antimicrobial activity of all compounds/antibiotics against a panel of bacteria was evaluated by microbroth dilution method in accordance with the Clinical and Laboratory Standards Institute (CLSI) guidelines. Overnight grown bacterial cultures were diluted in saline to achieve a 0.5 McFarland turbidity, followed by 1:50 dilution in Mueller-Hinton broth (MHB) for inoculation to a final concentration of approximately 5×10^5CFU/mL. The antimicrobial agents were 2-fold serially diluted in MHB in a 96-well plate and incubated at 37° C. with equal volumes of inoculum for 18 h. The lowest concentration that prevented the visible growth of bacteria was defined as the MIC for each antimicrobial agent. The broth with or without bacterial cells was used as positive or negative control, respectively.
# Checkerboard Assay. Combination studies with different antibiotics were performed in 96-well plates as previously described (22). Briefly, the antibiotic of interest was serially diluted in MHB along the abscissa while the adjuvant (newly synthesized conjugates) was serially diluted in MHB along the ordinate. This creates a 10×7 matrix wherein each well consists of a combination of different antibiotic and adjuvant concentrations. Overnight grown bacterial cultures were diluted in saline to achieve a 0.5 McFarland turbidity, followed by 1:50 dilution in Mueller-Hinton broth (MHB) for inoculation to a final concentration of approximately 5×10^5CFU/mL. Equal volume of this bacterial culture was then added to each well and incubated at 37° C. for 18 h. After incubation, the plates were read on EMax® Plus microplate reader (Molecular Devices, Sunnyvale, Calif., USA) at 590 nm. MIC was recorded as wells with the lowest concentration of drugs with no bacterial growth. The fractional inhibitory concentration (FIC) for each antibiotic was calculated by dividing the MIC of the antibiotic in the presence of adjuvant by the MIC of the antibiotic alone. Similarly, the FIC of adjuvant was calculated by dividing the MIC of the adjuvant in the presence of antibiotic by the MIC of the adjuvant alone. FIC index is the sum of both FICs. FIC indices of <0.5 were deemed synergistic; 0.5-4, no interaction; and >4, antagonistic.
# WT P. aeruginosa PAO1 = test: Checkerboard combination study / MIC; format: cell-based, Pseudomonas aeruginosa; settings: for MIC: Pseudomonas aeruginosa; for FICI in the presence of ≤10 μM of 1: antibiotic + compound 1; for FICI in the presence of ≤10 μM of 1 / MIC of Antibiotics in the presence of ≤10 μM of 1 / FICI in the presence of ≤10 μM of 2 / MIC of Antibiotics in the presence of ≤10 μM of 2 / FICI in the presence of ≤10 μM of 3 / MIC of Antibiotics in the presence of ≤10 μM of 3: WT PAO1; for MIC of Antibiotics in the presence of ≤10 μM of 1: antibiotic + compound 1 ≤10 μM; for FICI in the presence of ≤10 μM of 2: antibiotic + compound 2; for MIC of Antibiotics in the presence of ≤10 μM of 2: antibiotic + compound 2 ≤10 μM; for FICI in the presence of ≤10 μM of 3: antibiotic + compound 3; for MIC of Antibiotics in the presence of ≤10 μM of 3: antibiotic + compound 3 ≤10 μM
# [2] = PAO1, 18 h, antibiotic alone, WT PAO1 (Table 2), read-out: MIC alone
Structure (SMILES),"concentration that completely reverses resistance to ceftazidime and aztreonam ([1]; 16-64 μM, not meropenem) [µg/mL]",isolates reaching aztreonam susceptibility breakpoint (≤8 μg/ml) ([1]; aztreonam + single adjuvant 8 μM),isolates reaching ceftazidime susceptibility breakpoint (≤8 μg/ml) ([1]; ceftazidime + single adjuvant 8 μM),isolates reaching meropenem susceptibility level ([1]; meropenem + single adjuvant 8 μM),"potentiation of ceftazidime ([1]; single adjuvant at 8 μM, five isolates)","MIC (WT P. aeruginosa PAO1; PAO1, read-out: MIC alone) [µg/mL]",FICI in the presence of ≤10 μM of 1 (WT P. aeruginosa PAO1),MIC of Antibiotics in the presence of ≤10 μM of 1 (WT P. aeruginosa PAO1) [µg/mL],FICI in the presence of ≤10 μM of 2 (WT P. aeruginosa PAO1),MIC of Antibiotics in the presence of ≤10 μM of 2 (WT P. aeruginosa PAO1) [µg/mL],FICI in the presence of ≤10 μM of 3 (WT P. aeruginosa PAO1),MIC of Antibiotics in the presence of ≤10 μM of 3 (WT P. aeruginosa PAO1) [µg/mL],MIC (WT P. aeruginosa PAO1; [2]) [µg/mL],"MIC (WT P. aeruginosa PAO1; PAO1, 18 h, read-out: MIC alone) [µg/mL]"
NC(=O)[C@@H]1CC[C@@H]2CN1C(=O)N2OS(=O)(=O)O [Avibactam],4 to 16,three out of five,four out of five,one of five,4-16 fold,–,–,–,–,–,–,–,–,–
CN(C)c1cc(NC(=O)CNC(C)(C)C)c(O)c2c1C[C@H]1C[C@H]3[C@H](N(C)C)C(O)=C(C(N)=O)C(=O)[C@@]3(O)C(O)=C1C2=O [Tigecycline],–,–,–,–,–,4,0.25,2,0.50,2,0.52,2,–,–
C=C[C@]1(C)C[C@@H](OC(=O)CO)[C@]2(C)[C@H](C)CC[C@]3(CCC(=O)[C@H]32)[C@@H](C)[C@@H]1O [Pleuromutilin],–,–,–,–,–,–,1.00,512,1.00,512,0.25,128,512,–
COc1cc(Cc2cnc(N)nc2N)cc(OC)c1OC [Trimethoprim],–,–,–,–,–,–,0.50,32,0.50,32,0.50,32,64,–
C[C@@H]1O[C@@H]1P(=O)(O)O [Fosfomycin],–,–,–,–,–,–,0.51,8,0.50,8,1.02,16,16,–
CC(=O)NC[C@H]1CN(c2ccc(N3CCOCC3)c(F)c2)C(=O)O1 [Linezolid],–,–,–,–,–,–,1.00,1024,0.26,256,0.25,256,1020,–
CN(C)c1ccc(O)c2c1C[C@H]1C[C@H]3[C@H](N(C)C)C(O)=C(C(N)=O)C(=O)[C@@]3(O)C(O)=C1C2=O [Minocycline],–,–,–,–,–,–,0.25,2,0.25,2,0.17,1,8,–
COc1c(N2C[C@@H]3CCCN[C@@H]3C2)c(F)cc2c(=O)c(C(=O)O)cn(C3CC3)c12 [Moxifloxacin],–,–,–,–,–,–,1.00,1,0.51,0.5,1.01,1,1,–
CN[C@H](CC(C)C)C(=O)N[C@H]1C(=O)N[C@@H](CC(N)=O)C(=O)N[C@H]2C(=O)N[C@H]3C(=O)N[C@H](C(=O)N[C@H](C(=O)O)c4cc(O)cc(O)c4-c4cc3ccc4O)[C@H](O)c3ccc(c(Cl)c3)Oc3cc2cc(c3O[C@@H]2O[C@H](CO)[C@@H](O)[C@H](O)[C@H]2O[C@H]2C[C@](C)(N)[C@H](O)[C@H](C)O2)Oc2ccc(cc2Cl)[C@H]1O [Vancomycin],–,–,–,–,–,–,0.50,128,0.26,64,0.50,128,–,256
